Measurements published in ChEMBL document CHEMBL5303573, “Mapping human microbiome drug metabolism by gut bacteria and their genes” (Nature, 2019).

Assays:
[1] = The drug is tested on Blautia luti strain: DSM14534 for biotransformation. The drug concentrations were measured before and after a 12-h incubation by liquid-chromatography-coupled mass spectrometry (LC–MS); assay type: ADME; parameters: dose 2 uM, timepoint 0 vs 12 hours; settings: 2 µM
[2] = The drug is tested on Clostridium scindens strain: ATCC35704 for biotransformation. The drug concentrations were measured before and after a 12-h incubation by liquid-chromatography-coupled mass spectrometry (LC–MS); settings: 2 µM
[3] = The drug is tested on Enterobacter cancerogenus strain: ATCC35316 for biotransformation. The drug concentrations were measured before and after a 12-h incubation by liquid-chromatography-coupled mass spectrometry (LC–MS); settings: 2 µM
[4] = parabacteroides distasonis, 12 h, 2 µM
Description: The drug is tested on Parabacteroides distasonis strain: ATCC8503 for biotransformation. The drug concentrations were measured before and after a 12-h incubation by liquid-chromatography-coupled mass spectrometry (LC–MS)

[5] = The drug is tested on Bifidobacterium longum subsp. Infantis strain: CCUG52486 for biotransformation. The drug concentrations were measured before and after a 12-h incubation by liquid-chromatography-coupled mass spectrometry (LC–MS); settings: 2 µM
[6] = bacteroides fragilis, 12 h, 2 µM
Description: The drug is tested on Bacteroides fragilis strain: NCTC 9343 for biotransformation. The drug concentrations were measured before and after a 12-h incubation by liquid-chromatography-coupled mass spectrometry (LC–MS)

[7] = The drug is tested on Bacteroides fragilis strain: HMW610 for biotransformation. The drug concentrations were measured before and after a 12-h incubation by liquid-chromatography-coupled mass spectrometry (LC–MS); settings: 2 µM
[8] = The drug is tested on Bifidobacterium ruminantium strain: fecal isolate for biotransformation. The drug concentrations were measured before and after a 12-h incubation by liquid-chromatography-coupled mass spectrometry (LC–MS); settings: 2 µM
[9] = The drug is tested on Enterococcus faecalis strain: V583 for biotransformation. The drug concentrations were measured before and after a 12-h incubation by liquid-chromatography-coupled mass spectrometry (LC–MS); settings: 2 µM
[10] = The drug is tested on Bacteroides sp. WH2 strain: WH2 for biotransformation. The drug concentrations were measured before and after a 12-h incubation by liquid-chromatography-coupled mass spectrometry (LC–MS); settings: bacteroides sp. wh2, 12 h, 2 µM
[11] = The drug is tested on Eubacterium ventriosum strain: ATCC27560 for biotransformation. The drug concentrations were measured before and after a 12-h incubation by liquid-chromatography-coupled mass spectrometry (LC–MS); assay type: ADME; parameters: dose 2 uM, timepoint 0 vs 12 hours; settings: 2 µM
[12] = The drug is tested on Anaerococcus hydrogenalis strain: DSM7454 for biotransformation. The drug concentrations were measured before and after a 12-h incubation by liquid-chromatography-coupled mass spectrometry (LC–MS); settings: 2 µM
[13] = segatella copri, 12 h, 2 µM
Description: The drug is tested on Prevotella copri strain: DSM18205 for biotransformation. The drug concentrations were measured before and after a 12-h incubation by liquid-chromatography-coupled mass spectrometry (LC–MS)

[14] = bacteroides stercoris, 12 h, 2 µM
Description: The drug is tested on Bacteroides stercoris strain: ATCC43183 for biotransformation. The drug concentrations were measured before and after a 12-h incubation by liquid-chromatography-coupled mass spectrometry (LC–MS)

[15] = The drug is tested on Bacteroides fragilis strain: ATCC43859 for biotransformation. The drug concentrations were measured before and after a 12-h incubation by liquid-chromatography-coupled mass spectrometry (LC–MS); settings: 2 µM
[16] = bacteroides fragilis, 12 h, 2 µM; remark: listed apart in the source
Description: The drug is tested on Bacteroides fragilis strain: 3397 (T10) for biotransformation. The drug concentrations were measured before and after a 12-h incubation by liquid-chromatography-coupled mass spectrometry (LC–MS)

[17] = The drug is tested on Bacteroides caccae strain: ATCC43185 for biotransformation. The drug concentrations were measured before and after a 12-h incubation by liquid-chromatography-coupled mass spectrometry (LC–MS); settings: 2 µM
[18] = bacteroides thetaiotaomicron, 12 h, 2 µM
Description: The drug is tested on Bacteroides thetaiotaomicron strain: 3731 for biotransformation. The drug concentrations were measured before and after a 12-h incubation by liquid-chromatography-coupled mass spectrometry (LC–MS)

[19] = The drug is tested on Ruminococcus torques strain: ATCC27756 for biotransformation. The drug concentrations were measured before and after a 12-h incubation by liquid-chromatography-coupled mass spectrometry (LC–MS); assay type: ADME; parameters: dose 2 uM, timepoint 0 vs 12 hours; settings: 2 µM
[20] = The drug is tested on Bacteroides dorei strain: DSM17855 for biotransformation. The drug concentrations were measured before and after a 12-h incubation by liquid-chromatography-coupled mass spectrometry (LC–MS); settings: phocaeicola dorei, 2 µM

| SMILES | Bacterial Biotransformation [1] | Bacterial Biotransformation [2] | Bacterial Biotransformation [3] | Bacterial Biotransformation [4] | Bacterial Biotransformation [5] | Bacterial Biotransformation [6] | Bacterial Biotransformation [7] | Bacterial Biotransformation [8] | Bacterial Biotransformation [9] | Bacterial Biotransformation [10] | Bacterial Biotransformation [11] | Bacterial Biotransformation [12] | Bacterial Biotransformation [13] | Bacterial Biotransformation [14] | Bacterial Biotransformation [15] | Bacterial Biotransformation [16] | Bacterial Biotransformation [17] | Bacterial Biotransformation [18] | Bacterial Biotransformation [19] | Bacterial Biotransformation [20] |
| --- | --- | --- | --- | --- | --- | --- | --- | --- | --- | --- | --- | --- | --- | --- | --- | --- | --- | --- | --- | --- |
| CCc1oc2ccccc2c1C(=O)c1cc(Br)c(O)c(Br)c1 [BENZBROMARONE] | Compound NOT metabolized | Compound NOT metabolized | Compound NOT metabolized | Compound NOT metabolized | Compound NOT metabolized | Compound NOT metabolized | Compound NOT metabolized | Compound NOT metabolized | Compound NOT metabolized | Compound NOT metabolized | Compound NOT metabolized | Compound NOT metabolized | Compound NOT metabolized | Compound NOT metabolized | Compound NOT metabolized | Compound NOT metabolized | Compound NOT metabolized | Compound NOT metabolized | – | – |
| CCOc1cc(CC(=O)N[C@@H](CC(C)C)c2ccccc2N2CCCCC2)ccc1C(=O)O [REPAGLINIDE] | Compound NOT metabolized | Compound NOT metabolized | Compound NOT metabolized | Compound metabolized | Compound NOT metabolized | – | Compound metabolized | Compound NOT metabolized | Compound NOT metabolized | Compound NOT metabolized | Compound NOT metabolized | Compound NOT metabolized | Compound NOT metabolized | Compound metabolized | Compound metabolized | – | – | Compound NOT metabolized | Compound NOT metabolized | Compound metabolized |
| CCCC1O[C@@H]2C[C@H]3[C@@H]4CCC5=CC(=O)C=C[C@]5(C)[C@H]4[C@@H](O)C[C@]3(C)[C@]2(C(=O)CO)O1 (stereo partly specified) [BUDESONIDE] | Compound NOT metabolized | Compound NOT metabolized | Compound NOT metabolized | Compound NOT metabolized | Compound NOT metabolized | – | Compound metabolized | Compound NOT metabolized | Compound NOT metabolized | Compound NOT metabolized | Compound NOT metabolized | Compound NOT metabolized | Compound NOT metabolized | Compound metabolized | Compound metabolized | Compound metabolized | Compound NOT metabolized | Compound metabolized | Compound NOT metabolized | Compound metabolized |
| CCCC(C)(COC(N)=O)COC(=O)NC(C)C (stereo unspecified) [CARISOPRODOL] | – | Compound NOT metabolized | Compound NOT metabolized | Compound metabolized | Compound NOT metabolized | Compound metabolized | Compound metabolized | Compound NOT metabolized | Compound NOT metabolized | Compound NOT metabolized | Compound metabolized | – | Compound metabolized | Compound metabolized | Compound metabolized | Compound metabolized | Compound NOT metabolized | – | Compound NOT metabolized | Compound metabolized |
| CC(Oc1c(Cl)cccc1Cl)C1=NCCN1 (stereo unspecified) [LOFEXIDINE] | Compound metabolized | Compound metabolized | Compound metabolized | Compound NOT metabolized | Compound metabolized | Compound metabolized | – | Compound metabolized | Compound NOT metabolized | Compound metabolized | Compound NOT metabolized | Compound metabolized | Compound metabolized | Compound metabolized | Compound metabolized | Compound metabolized | Compound metabolized | Compound metabolized | Compound metabolized | Compound metabolized |
| COc1ccc2c(c1OC)C(=O)O[C@@H]2[C@H]1c2c(cc3c(c2OC)OCO3)CCN1C [NOSCAPINE] | Compound metabolized | Compound metabolized | Compound metabolized | Compound metabolized | Compound metabolized | Compound metabolized | Compound NOT metabolized | Compound metabolized | Compound metabolized | Compound NOT metabolized | Compound metabolized | Compound metabolized | Compound metabolized | Compound metabolized | Compound NOT metabolized | Compound NOT metabolized | Compound NOT metabolized | – | Compound metabolized | Compound metabolized |
| Clc1ccc(Cn2c(CN3CCCC3)nc3ccccc32)cc1 [CLEMIZOLE] | Compound NOT metabolized | Compound NOT metabolized | Compound NOT metabolized | Compound NOT metabolized | Compound NOT metabolized | – | Compound NOT metabolized | Compound NOT metabolized | Compound NOT metabolized | Compound NOT metabolized | Compound NOT metabolized | Compound NOT metabolized | Compound NOT metabolized | Compound NOT metabolized | Compound NOT metabolized | Compound NOT metabolized | Compound NOT metabolized | Compound NOT metabolized | Compound NOT metabolized | – |
| CNC(=C[N+](=O)[O-])NCCSCc1ccc(CN(C)C)o1 [RANITIDINE] | Compound metabolized | Compound metabolized | Compound NOT metabolized | Compound NOT metabolized | Compound metabolized | Compound metabolized | Compound NOT metabolized | Compound metabolized | Compound metabolized | – | Compound metabolized | Compound metabolized | Compound metabolized | Compound NOT metabolized | Compound NOT metabolized | Compound NOT metabolized | – | Compound NOT metabolized | Compound metabolized | Compound metabolized |
| NS(=O)(=O)c1cc2c(cc1Cl)N=C(CSCc1ccccc1)NS2(=O)=O [BENZTHIAZIDE] | Compound NOT metabolized | Compound NOT metabolized | Compound NOT metabolized | Compound NOT metabolized | Compound NOT metabolized | – | Compound NOT metabolized | Compound NOT metabolized | Compound NOT metabolized | Compound NOT metabolized | – | Compound NOT metabolized | Compound NOT metabolized | Compound NOT metabolized | Compound NOT metabolized | Compound NOT metabolized | Compound NOT metabolized | Compound NOT metabolized | – | – |
